The results in this text go back to the SangsterLogP compilation.

The series can be described thus: method code SF-AS, from DOI: 10.1016/0048-3575(91)90045-n.

Each structure is given as a SMILES string.

As to `O=C(NC(=O)c1c(F)cccc1F)Nc1cc(C(F)(F)F)c(F)cc1F`, the logP (usually a log measure of how a compound divides between an organic and an aqueous phase) is 2.34.
Under `O=C(NC(=O)c1c(F)cccc1F)Nc1cccc(C(F)(F)F)c1` stands 2.56; under `Cc1cc(Br)cc(C)c1NC(=O)NC(=O)c1c(F)cccc1F`, 2.12.
Under `O=C(NC(=O)c1c(F)cccc1F)Nc1cc(C(F)(F)F)c(Br)c(C(F)(F)F)c1` stands 4.56.
Next, `Cc1cc(Br)ccc1NC(=O)NC(=O)c1c(F)cccc1F`: 2.03; `O=C(NC(=O)c1c(F)cccc1F)Nc1cc(Br)cc(C(F)(F)F)c1Cl`: 3.41.
Compound `CC(C)Oc1cc(NC(=O)NC(=O)c2c(F)cccc2F)c(F)cc1Cl` gave a log partition coefficient (logP) of 2.84.
Next, `Cc1cccc(NC(=O)NC(=O)c2c(F)cccc2F)c1C`: 1.35.
Under `O=C(NC(=O)c1c(F)cccc1F)Nc1cccc(Cl)c1Cl` stands 2.09; under `O=C(NC(=O)c1c(F)cccc1F)Nc1ccc(Cl)c(C(F)(F)F)c1`, 3.33.
As to `O=C(NC(=O)c1c(F)cccc1F)Nc1ccccc1Br`, the logP was 1.34.
Under `O=C(NC(=O)c1c(F)cccc1F)Nc1cc(C(F)(F)F)cc(C(F)(F)F)c1` stands 3.72; under `CCCCc1ccc(NC(=O)NC(=O)c2c(F)cccc2F)c(C)c1`, 3.1.
For the compound `O=C(NC(=O)c1c(F)cccc1F)Nc1cc(Cl)cc(Cl)c1`, the logP is 3.17.
Regarding `CC(C)COc1cc(NC(=O)NC(=O)c2c(F)cccc2F)c(F)cc1Cl`, the lipophilicity (logP) is 3.79.
Under `O=C(NC(=O)c1c(F)cccc1F)Nc1cc(C(F)(F)F)c(Br)cc1F` stands 3.17; under `O=C(NC(=O)c1c(F)cccc1F)Nc1cc(Cl)cc(Cl)c1Br`, 3.04.
For `O=C(NC(=O)c1c(F)cccc1F)Nc1c(F)cc(Br)cc1F`, the logP came out at 1.73.
Under `Cc1c(NC(=O)NC(=O)c2c(F)cccc2F)ccc(Br)c1Cl` stands 2.69.
Next, `O=C(NC(=O)c1c(F)cccc1F)Nc1ccccc1C(F)(F)F`: 1.17.
Under `CCCCc1ccc(NC(=O)NC(=O)c2c(F)cccc2F)cc1` stands 3.3.
`O=C(NC(=O)c1c(F)cccc1F)Nc1ccc(Cl)cc1`: the log partition coefficient (logP) was found to be 2.12.
For the compound `CCCCc1ccc(NC(=O)NC(=O)c2c(F)cccc2F)cc1C`, the logP was 3.64.
Regarding `O=C(NC(=O)c1c(F)cccc1F)Nc1cc(C(F)(F)F)c(Cl)cc1F`, the logP came to 3.02.
Under `CCCCc1ccc(NC(=O)NC(=O)c2c(F)cccc2F)c([N+](=O)[O-])c1` stands 3.1.
Next, `O=C(NC(=O)c1c(F)cccc1F)Nc1ccc(Br)cc1`: 2.29; `Cc1cc(Oc2ncc(C(F)(F)F)cc2Cl)c(C)cc1NC(=O)NC(=O)c1c(F)cccc1F`: 3.84.
For the compound `CSc1cc(Br)ccc1NC(=O)NC(=O)c1c(F)cccc1F`, the log partition coefficient (logP) came to 2.18.
Under `O=C(NC(=O)c1c(F)cccc1F)Nc1cc(Cl)cc(C(F)(F)F)c1Br` stands 3.26.
Under `O=C(NC(=O)c1c(F)cccc1F)Nc1ccc(Cl)cc1C(F)(F)F` stands 1.98; under `Cc1cc(Oc2ncc(C(F)(F)F)cc2Cl)ccc1NC(=O)NC(=O)c1c(F)cccc1F`, 3.23; under `O=C(NC(=O)c1c(F)cccc1F)Nc1cc(Cl)ccc1Cl`, 2.19.
Next, `CCc1cc(Br)ccc1NC(=O)NC(=O)c1c(F)cccc1F`: 2.27.
Compound `O=C(NC(=O)c1c(F)cccc1F)Nc1cc(Cl)cc(C(F)(F)F)c1F` showed a logP of 3.15.
Under `O=C(NC(=O)c1c(F)cccc1F)Nc1ccc(Cl)c(Cl)c1` stands 3; under `O=C(NC(=O)c1c(F)cccc1F)Nc1cc(F)cc(C(F)(F)F)c1Cl`, 2.86; under `O=C(NC(=O)c1c(F)cccc1F)Nc1cc(Cl)c(F)c(Cl)c1F`, 2.9.
Next, `CCc1cc(NC(=O)NC(=O)c2c(F)cccc2F)ccc1Br`: 3.33; `O=C(NC(=O)c1c(F)cccc1F)Nc1cc(OC(F)(F)F)c(Br)cc1F`: 3.24; `Cc1c(Cl)cccc1NC(=O)NC(=O)c1c(F)cccc1F`: 1.82.
Next, `O=C(NC(=O)c1c(F)cccc1F)Nc1cc(Cl)cc(C(F)(F)F)c1Cl`: 3.27; `O=C(NC(=O)c1c(F)cccc1F)Nc1cc(C(F)(F)F)ccc1F`: 2.24.
`O=C(NC(=O)c1c(F)cccc1F)Nc1ccc(Cl)cc1F` returned a log partition coefficient (logP) of 1.91.
Under `Cc1cc(NC(=O)NC(=O)c2c(F)cccc2F)cc(C)c1C` stands 2.5; under `O=C(NC(=O)c1c(F)cccc1F)Nc1ccc(Oc2ncc(C(F)(F)F)cc2Cl)c(Cl)c1`, 4.52; under `C#CCOc1cc(NC(=O)NC(=O)c2c(F)cccc2F)c(F)cc1Cl`, 2.2.
As to `C=CCOc1cc(NC(=O)NC(=O)c2c(F)cccc2F)c(F)cc1Cl`, the logP came to 2.76.
Under `COc1cc(Br)ccc1NC(=O)NC(=O)c1c(F)cccc1F` stands 2.02; under `Cc1cc(C)cc(NC(=O)NC(=O)c2c(F)cccc2F)c1`, 2.17; under `Cc1cc(NC(=O)NC(=O)c2c(F)cccc2F)ccc1Br`, 2.8.
`Cc1ccc(NC(=O)NC(=O)c2c(F)cccc2F)c(C)c1` had a log partition coefficient (logP) of 1.46.
Under `O=C(NC(=O)c1c(F)cccc1F)Nc1cc(Cl)c(Oc2ncc(C(F)(F)F)cc2Cl)c(Cl)c1` stands 5.54.
Under `O=C(NC(=O)c1c(F)cccc1F)Nc1ccc(Br)c(Cl)c1F` stands 2.86.
Next, `Cc1ccc(C)c(NC(=O)NC(=O)c2c(F)cccc2F)c1`: 1.47.
The compound `O=C(NC(=O)c1c(F)cccc1F)Nc1cc(OC(F)(F)F)c(F)cc1F` returned a logP of 2.48.
Next, `O=C(NC(=O)c1c(F)cccc1F)Nc1ccc(I)cc1`: 2.46; `O=C(NC(=O)c1c(F)cccc1F)Nc1ccc(F)cc1`: 1.47.
Under `CCCCc1ccc(NC(=O)NC(=O)c2c(F)cccc2F)cc1Br` stands 4.23.
Next, `O=C(NC(=O)c1c(F)cccc1F)Nc1cc(Cl)c(Cl)c(Cl)c1`: 3.76; `O=C(NC(=O)c1c(F)cccc1F)Nc1cc(C(F)(F)F)c(Cl)cc1Cl`: 3.24.
`O=C(NC(=O)c1c(F)cccc1F)Nc1cc(Cl)c(Cl)c(Cl)c1Cl` returned a logP of 2.9.
Next, `O=C(NC(=O)c1c(F)cccc1F)Nc1ccc(Cl)cc1Cl`: 2.18.
As to `Cc1ccc(NC(=O)NC(=O)c2c(F)cccc2F)cc1C`, the lipophilicity (logP) was found to be 2.1.
Under `Cc1ccc(NC(=O)NC(=O)c2c(F)cccc2F)cc1Cl` stands 2.69; under `O=C(NC(=O)c1c(F)cccc1F)Nc1ccc(F)c(C(F)(F)F)c1`, 2.64.
Under `CCCCc1ccc(NC(=O)NC(=O)c2c(F)cccc2F)c(Br)c1` stands 3.39; under `Cc1cc(NC(=O)NC(=O)c2c(F)cccc2F)cc(C)c1Br`, 3.28.
Under `Cc1c(Br)ccc(NC(=O)NC(=O)c2c(F)cccc2F)c1Cl` stands 2.73; under `O=C(NC(=O)c1c(F)cccc1F)Nc1ccccc1F`, 1.03; under `CCc1ccc(NC(=O)NC(=O)c2c(F)cccc2F)cc1`, 2.2.
In the case of `Cc1cc(NC(=O)NC(=O)c2c(F)cccc2F)ccc1Cl`, the logP stood at 2.57.
Under `O=C(NC(=O)c1c(F)cccc1F)Nc1c(F)cc(Br)c(C(F)(F)F)c1Br` stands 3.07; under `O=C(NC(=O)c1c(F)cccc1F)Nc1c(F)ccc(C(F)(F)F)c1Br`, 2.22; under `O=C(NC(=O)c1c(F)cccc1F)Nc1cc(C(F)(F)F)cc(C(F)(F)F)c1Br`, 3.51.
Under `O=C(NC(=O)c1c(F)cccc1F)Nc1ccccc1` stands 1.16; under `O=C(NC(=O)c1c(F)cccc1F)Nc1cc(C(F)(F)F)cc(Cl)c1Cl`, 3.27; under `O=C(NC(=O)c1c(F)cccc1F)Nc1cccc(Cl)c1F`, 1.83.
Next, `O=C(NC(=O)c1c(F)cccc1F)Nc1ccc(Cl)c(Cl)c1Cl`: 2.88.
Regarding `O=C(NC(=O)c1c(F)cccc1F)Nc1cc([N+](=O)[O-])c(Br)cc1F`, the logP turned out to be 2.11.
In turn, `O=C(NC(=O)c1c(F)cccc1F)Nc1ccc(Br)c(OC(F)(F)F)c1` had a logP of 3.48.
Under `O=C(NC(=O)c1c(F)cccc1F)Nc1ccc(Oc2ncc(C(F)(F)F)cc2Cl)c(Cl)c1Cl` stands 4.46.
